Results as given in US20100003191A1, “AURONE DERIVATIVE-CONTAINING COMPOSITION FOR DIAGNOSIS” (NAGASAKI UNIVERSITY, priority 2006, published 2010).

Key:
[1] = target: T1, Ab(1-42) aggregates (Homo sapiens, UniProt P05067); assay: Binding inhibition experiment using Ab(1-42) aggregates, inhibition constants (Ki), radioligand [125I](Z)-2-(4-aminobenzylidene)-5-iodobenzofuran-3(2H)-one (Table 14); conditions: Aβ42 aggregates
T1 construct: Ab(1-42) was dissolved in 10 mM phosphate buffer containing 1 mM EDTA (pH 7.4)
Description: Ab(1-42) was dissolved in 10 mM phosphate buffer containing 1 mM EDTA (pH 7.4) to give a concentration of 0.25 mg/mL, and the mixture was incubated at 37° C. for 42 h to thereby prepare Ab(1-42) aggregates.
[…] of 10% EtOH solution, […] of a solution of [^125I](Z)-2-(4-aminobenzylidene)-5-iodobenzofuran-3(2H)-one in 10% ethanol, and […] of a sample solution at various concentrations ([…]) were mixed. Finally, […] of Ab(1-42) aggregate solution was added thereto, and the mixture was allowed to stand at room temperature for 3 h. Ab(1-42) aggregate-bound compounds and nonbound compounds were separated with a Brandel M-24R cell harvester using a Whatman GF/B filter. Radioactivities remaining on the filter were measured with a γ-counter, and inhibition curves were created using Graph Pad Prism 4.0 to calculate inhibition constants (Ki values).
In order to calculate inhibition constants (Ki values) for various aurone derivatives synthesized, binding inhibition experiments were performed using [^125I](Z)-2-(4-aminobenzylidene)-5-iodobenzofuran-3(2H)-one as a radioactive ligand. […] Thus, aurone derivatives have shown a high binding property to amyloid aggregates. No difference in binding property resulting from the length of introduced ethyleneoxy chains was observed.

[2] = system: senile plaque amyloid on hippocampal sections from Alzheimer's disease patients; assay: In vitro autoradiography and immunostaining on brain sections from Alzheimer's disease patients (Example 2); format: binding, human; conditions: AD patient brain sections, FIG. 10
Description: Hippocampal sections (5 μm thick) from Altzheimer's disease patients were dewaxed by washing with xylene ((5 min×2) and with 100% EtOH, 100% EtOH, 95% EtOH, 85% EtOH and 70% EtOH (1 min×1 for each). After air-drying, the sections were reacted with a ligand (40% EtOH solution) for 1 h. Then, the sections were washed with saturated aqueous lithium carbonate solution in 40% EtOH (2 min×2), with 40% EtOH (2 min×2) and with water (30 sec×1), and immobilized on imaging plates for 24 h. Subsequently, the sections were analyzed with BAS2500. Further, using adjacent sections, immunostaining was performed by conventional methods with anti-amyloid β(1-42) antibody.
Autoradiography was performed on brain sections from Altzheimer's disease patients with [^125I]26 (FIG. 10).

[3] = system: senile plaques on brain sections from Tg2576 mice; assay: Fluorescence staining and immunostaining on brain sections from transgenic mice; format: binding; conditions: Tg2576 mouse brain sections, FIG. 9
Description: As Alzheimer's disease model mouse, Tg2576 mice (20-month-old) were used. Brain tissues were removed and frozen in carboxymethyl cellulose (4%). Then, a series of sections 10 μm thick were prepared therefrom. The thus prepared sections were reacted with a ligand (a solution of Compound 26 and thioflavin in 50% EtOH) for 3 min. Then, the sections were washed with 50% EtOH (1 min×twice) and observed under a fluorescence microscope. Further, using adjacent sections, immunostaining was performed by conventional methods with anti-amyloid (3(1-42) antibody.
Fluorescence staining was performed on brain sections from Alzheimer's disease model mouse (Tg2576) utilizing the fluorescence property of Compound 26 (FIG. 9).

[4] = male, ddY, mouse, in vivo, 2 min
Description: Animals were decapitated at 2, 10, 30 or 60 min after the injection, and the blood was collected. Then, major organs were removed, and weights and radioactivities thereof were measured.
In vivo radioactivity distribution experiments of ^125I-labeled aurone derivatives were performed using 5-week-old normal mice.

T1 sequence (P05067 672-713 limits assumed): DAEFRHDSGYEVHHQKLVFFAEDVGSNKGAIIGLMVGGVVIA

O=C1/C(=C/c2ccc(OCCO)cc2)Oc2ccc(I)cc21 [Compound 26, (Z)-2-(4-(2-hydroxyethoxy)benzylidene)-5-iodobenzofuran-3(2H)-one]
Ki [1]: 1.05 ± 0.06 nM | radioactivity in autoradiography vs immunostaining [2]: observed at the positive site of immunostaining with anti-amyloid antibody | fluorescence image on brain sections [3]: consistent with the fluorescence image of thioflavin S on adjacent section and the immunostaining image of anti-amyloid antibody on adjacent section | migration of radioactivity to the brain [4]: 2.4-4.5 % ID/g

O=C1/C(=C/c2ccc(OCCOCCO)cc2)Oc2ccc(I)cc21 [Compound 27, (Z)-2-(4-(2-(2-hydroxyethoxy)ethoxy)benzylidene)-5-iodobenzofuran-3(2H)-one]
Ki [1]: 3.36 ± 0.29 nM | migration of radioactivity to the brain [4]: 2.4-4.5 % ID/g

O=C1/C(=C/c2ccc(OCCOCCOCCO)cc2)Oc2ccc(I)cc21 [Compound 28, (Z)-2-(4-(2-(2-(2-hydroxyethoxy)ethoxy)ethoxy)benzylidene)-5-iodobenzofuran-3(2H)-one]
Ki [1]: 2.56 ± 0.31 nM | migration of radioactivity to the brain [4]: 2.4-4.5 % ID/g
